This is an account of results in PubChem BioAssay (NCI).

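All cell lines were grown in 96-well plates and treated with compound for 48 hours. TGI: concentration producing complete growth inhibition.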 Some results are limits rather than exact numbers.

Among the test systems are HCT-15 colon; SNB-19 CNS; HS 578T breast; M14 melanoma; ACHN renal; LOX IMVI melanoma; NCI-H460 lung; OVCAR-8 ovarian; HCC-2998 colon; MDA-MB-435.
Holding throughout (test): NCI-60 cell line screen, 48 h

Consider `CCCC1NC(C#N)(C#N)C(CCC)NC1(C#N)C#N` (stereo not given), for which the TGI was more than 39.2 µM in the test on HCT-15 colon; more than 100 µM with SNB-19 CNS; 22.6 µM with HS 578T breast; more than 60.6 µM with M14 melanoma; more than 100 µM in the test with ACHN renal; 31.4 µM in the test with LOX IMVI melanoma. Moreover, the TGI is more than 100 µM in the test on NCI-H460 lung, 21.6 µM in the test on OVCAR-8 ovarian, more than 58.2 µM with HCC-2998 colon and 26.8 µM with MDA-MB-435.
For `COc1ccc2oc(S(=O)(=O)N3CC(CCl)c4ccc([N+](=O)[O-])cc43)cc2c1` (stereo not given), the TGI in the test with HCT-15 colon was 3.3 µM; with SNB-19 CNS it was 29.2 µM; in the test with HS 578T breast it was more than 100 µM; with M14 melanoma, 32.7 µM; with ACHN renal, more than 48.1 µM; with LOX IMVI melanoma it was 1.38 µM. In addition, the TGI in the test on NCI-H460 lung was found to be 0.401 µM; in the test with OVCAR-8 ovarian, 4.36 µM; in the test on HCC-2998 colon, 2.62 µM; in the test on MDA-MB-435, 0.169 µM.
`O=C(NCC1Nc2ccncc2S(=O)(=O)N1)c1ccc(Br)cc1` (stereo not given): the TGI in the test on HCT-15 colon was more than 100 µM; in the test on SNB-19 CNS it was more than 100 µM; in the test with HS 578T breast, 83.1 µM; in the test on M14 melanoma, 90.8 µM; in the test on ACHN renal, more than 100 µM; with LOX IMVI melanoma, more than 100 µM. In addition, the TGI in the test with NCI-H460 lung was more than 100 µM; in the test on OVCAR-8 ovarian it was more than 100 µM; in the test on HCC-2998 colon it was more than 100 µM; in the test on MDA-MB-435, 37.2 µM.
`CC(C)CC(=O)NC(Nc1ccc(S(=O)(=O)Nc2ncccn2)cc1)(C(F)(F)F)C(F)(F)F`: the TGI in the test with HCT-15 colon, in the test with SNB-19 CNS, in the test with HS 578T breast, in the test with M14 melanoma, in the test on ACHN renal and with LOX IMVI melanoma was more than 100 µM in each case. Besides, the TGI with NCI-H460 lung, in the test with OVCAR-8 ovarian, with HCC-2998 colon and in the test on MDA-MB-435 was more than 100 µM each time.
